We go through one substance from patent US4022884A, “Gardimycin and process for producing same” (Gruppo Lepetit S.p.A., priority 1974, dated 1977).

A short description of one series: Toxicity (LD50). Type of series: in vivo.
Series [1] in a line: Antibacterial in vitro activity, general statement. Type of series: cell-based. The settings on record: in words. The text has this:
(§1) Metabolite A, metabolite B (hereafter referred to as gardimycin) as well as its salts with alkali and alkali earth metals and metabolite C show good antibacterial in vitro and in vivo activities.

The test system of a further series is Streptococcus viridans. The experiment in a line: Minimal inhibitory concentration, clinically isolated strains (Table 2). Type of series: cell-based. The text has this: (§2) Another favorable characteristic of the antibiotic substance gardimycin is that it is active against clinically isolated Streptococcus strains.
Series [2] relates to Streptococcus haemolyticus. The series is described as above. It is filed as cell-based.
Description: as §2

Series [3] relates to Diplococcus pneumoniae UC 41. As to the kind of experiment: Experimental infection in mice. It is filed as in vivo.
In series [4] the test system is Streptococcus haemolyticus C 203. The experiment in a line: Experimental infection in mice. Type of series: in vivo.
For series [5], the system named is clinically isolated Streptococcus strains. As to the kind of experiment: Activity against clinically isolated Streptococcus strains, general statement. Type of series: cell-based. The following applies: in words.
Description: as §2

In series [6] the test system is Diplococcus pneumoniae UC 41. As to the kind of experiment: In vitro minimal inhibitory concentration (Table 1). It is filed as cell-based.
Description: as §1

Series [7] deals with Neisseria gonorrheae ATCC 9826. The description is as above. Type of series: cell-based.
Description: as §1

For series [8], the system named is Streptococcus haemolyticus C 203. The series is described as above. It is filed as cell-based.
Description: as §1

Series [9] has as its system Streptococcus faecalis ATCC 10541. The description is as above. It is filed as cell-based.
Description: as §1

The test system of series [10] is Micrococcus flavus ATCC 10240. Described as above. It is filed as cell-based.
Description: as §1

Series [11] deals with Staphylococcus aureus ATCC 538. Described as above. Type of series: cell-based.
Description: as §1

Series [12] can be described thus: Antibacterial in vivo activity, general statement. The settings on record: in words.
Description: as §1

Series [13] deals with Clostridium perfringens ISS 30543. Type of series: cell-based.
Series [14] deals with pathogenic bacteria of the genus Diplococcus and Streptococcus. As to the kind of experiment: In vivo activity against experimental infections in mice, general statement. The following applies: in words.

For orientation: ED50 means the midpoint of the dose-response relation. On to gardimycin, for which the LD50 entry in “Toxicity (LD50)” (i.p.) is “higher than 1000 mg/Kg”; in the series “Toxicity (LD50)” (i.v.), “about 2000 mg/Kg”. For the same substance, the toxicity entry in “Toxicity (LD50)” (in words) is reported as “very low toxicity”. Also, the “antibacterial in vitro activity” value in series [1] is recorded as “good”. For the same substance, the Minimal inhibitory concentration in the series with Streptococcus viridans (clinically isolated strain 2057) turned out to be 5 µg/mL; with Streptococcus viridans (clinically isolated strain 2085), 2 µg/mL; in series [2] (clinically isolated strain 2078) it was 1 µg/mL; in series [2] (clinically isolated strain 2087), 1 µg/mL; in series [6] it was 50 µg/mL; in [7] it was 20 µg/mL. Moreover, the Minimal inhibitory concentration amounted to 2 µg/mL in series [8]; 50 µg/mL in [9]; 1 µg/mL in series [10]; 50 µg/mL in series [11]; 2 µg/mL in series [13]. Besides, the results for the 50% effective dose (ED50) in series [3] and in series [4] were 30 mg/kg and 0.75 mg/kg, respectively. Also, the “activity against clinically isolated Streptococcus strains” value in [5] is “active”. The “antibacterial in vivo activity” value in [12] is recorded as “good”. Besides, the “in vivo activity against experimental infections” value in [14] is “very interesting in vivo activity”.
